Data reported in patent publication US8846330B2, “Methods and kits for the diagnosis of RyR1-related diseases” (The Henry M. Jackson Foundation for the Advancement of …, priority 2008, dated 2014).
“Also recorded” adds a separate entry of the source. Where two headings read alike, the source gives them in different places.

Assays:
Format in all cases: cell-based
lymphocyte cells [1] = experiment: 4CmC-induced adenosine in human lymphocyte / immortalized B cells (Example 3); conditions: for ADO level at maximum of 4CmC dose response, mean±SEM: 2 mM 4CmC, EHNA 0.1 mM
lymphocyte cells [2] = experiment: 4CmC-induced adenosine plus inosine in cultured swine lymphocytes (Example 2); conditions: for adenosine plus inosine level upon stimulation with 4CmC, mean±SEM: 5 mM 4CmC
Experimental: Lymphocyte cells were isolated from whole arterial blood sample (40 ml) obtained from homozygous recessive MHS (n=5) and normal (n=3) swine by the Ficoll-Hypaque centrifugation technique. Lymphocyte cells were then cultured in RPMI-1640 media supplemented with 10% fetal bovine serum plus 100 units/liter penicillin at 37° C. under 5% CO2 for 2 to 3 weeks. After cell culture period, cell's (5−15×10^4 cells) were suspended in Hanks' balanced salt solution (HBSS)+1% bovine serum albumin and treated with specific RyR1 agonist 4-chloro-m-cresol (4CmC, 5 mM) at 37° C. in the presence and absence of inhibitor of adenosine deaminase erythro-9-(2-hydroxy-3-nonyl) adenine (EHNA, 0.1 mM) for 30 minutes. After purification using 12% HClO4 followed by centrifugation (10 minutes, 4000 RPM), aliquot of sample (50 μl) was assayed for adenosine and inosine content using high performance liquid chromatography (HPLC). Data are normalized to per 1 million cells, compared using one way ANOVA, and presented as mean±SEM. P<0.05 considered significant.

lymphocyte cells [3] = experiment: 4CmC-induced adenosine in swine lymphocyte cells, nucleosides assay (Example 4); conditions: for EC50: Sus scrofa, Lymphocyte; for peak ADO level upon 4CmC stimulation, mean±SEM: near 1 mM 4CmC
Experimental: Isolation of lymphocytes from whole blood: Lymphocyte cells were isolated from whole blood by Ficoll-Hypaque density gradient centrifugation technique (see Boyum A., Scand. J. Clip. Lab. 97:77-89 (1968)). Isolated lymphocyte cells were dispensed into 3-volume normal Hanks' balanced salt solution (HBSS) and centrifuged (10 minutes at 1000 RPM). The pellet was re-suspended in HBSS to lyse contaminating erythrocytes and spun. The later step was repeated one more time. To maintain simplicity of the protocol for possible MH diagnostic purposes no further purification was attempted. Lymphocyte cells were then cultured in RPMI-1640 media supplemented with 10% fetal bovine serum, […] penicillin and 2 mM glutamine. Cell cultures were incubated at 37° C. in a humidified chamber with 5% CO2. All experiments were completed within 4 days after isolation of lymphocyte cells from whole blood samples.
Nucleosides Assay Protocol: Briefly, lymphocyte cells (1−2×10^6 cells/test) were suspended in HBSS with or without Ca^2+/Mg^2+ (as indicated for each experiment) plus 0.1% bovine serum albumin (BSA). Experiments were carried out in the presence of the adenosine deaminase inhibitor erythro-9-(2-hydroxy-3-nonyl) adenine-HCl ([…]) to prevent deamination of adenosine to inosine (Lorbar et al., J Mol Cell Cardiol 31: 401-12 (1999)) and incubated at 37° C. for 10 minutes followed by treatment with different 4CmC concentrations (0.05-10 mM). Further incubation at 37° C. for an additional 45 minutes was also carried out. Final volumes of the test tubes were adjusted to 0.2 ml using HBSS buffer. Termination of the cell activity and purification of samples was accomplished by addition of 0.1 ml 12% perchloric acid followed by centrifugation at 5000 RPM for 10 minutes. Aliquots of the supernatant (50 μl) were assayed for adenosine and inosine content using HPLC.
HPLC Conditions: The HPLC system consisted of a Waters Symmetry C18 column (4.6×250 mm) and mobile phase of 94% KH2PO4 (50 mM, pH 4.6) containing 1-heptanesulfonic acid (0.5 mM) and 6% acetonitrile. Under these conditions, retention times for inosine and adenosine were 4 and 7.3 min, respectively. Peak width of inosine and adenosine were 18 and 36 seconds, respectively. Eluting compounds were detected by their absorbance at 254 nm using a Waters photodiode array detector (model 996). Sample adenosine and inosine concentrations were obtained using a calibrated standard curve of concentrations vs. peak area.
Statistics: Sample nucleosides concentrations were normalized to represent per 1 million cells and presented as means±SEM. The t-test was applied to test for differences between agonist-induced nucleosides in lymphocyte cells from MHS and normal swine. A P<0.05 considered to indicate statistical significance.

Cc1cc(O)ccc1Cl [4CmC, 4-chloro-m-cresol]
ADO level at maximum of 4CmC dose response, mean±SEM (lymphocyte cells [1]; MHS cells): 1.71 ± 0.13 µM
ADO level at maximum of 4CmC dose response, mean±SEM (lymphocyte cells [1]; normal cells): 0.61 ± 0.11 µM
4CmC-induced adenosine in MHS (CHCT-positive) versus normal / CHCT-negative lymphocyte cells (lymphocyte cells [1]; FIG. 5 and 6): significantly higher; also recorded: significantly greater
4CmC concentration at which ADO levels maximized (lymphocyte cells [1]; human lymphocytes): 2 mM
adenosine plus inosine level upon stimulation with 4CmC, mean±SEM (lymphocyte cells [2]; MHS swine (n=5)): 8.06 ± 0.9 µM
adenosine plus inosine level upon stimulation with 4CmC, mean±SEM (lymphocyte cells [2]; normal swine (n=3)): 1.16 ± 0.3 µM
increase of nucleoside production on 4CmC stimulation (lymphocyte cells [2]; lymphocytes from MHS swine): nine-fold increase
effect of 4CmC stimulation on nucleoside (adenosine plus inosine) production (lymphocyte cells [2]; lymphocytes from normal swine): minimal, if any, effect
4CmC-induced ADO in lymphocyte cells from MHS swine versus normal swine (lymphocyte cells [3]): significantly greater; also recorded: significantly higher
4CmC-induced ADO, mean±SEM (lymphocyte cells [3]; 1 mM 4CmC, Ca2+/Mg2+-free HBSS, normal swine (n=6)): 0.244 ± 0.026 µM
basal plus 4CmC-induced ADO range (lymphocyte cells [3]; 1 mM 4CmC, MHS swine cells): 0.250 to 0.537 µM
4CmC-induced ADO, mean±SEM (lymphocyte cells [3]; 1 mM 4CmC, normal HBSS, normal swine (n=6)): 0.326 ± 0.023 µM
increase in ADO formation in the presence of extracellular Ca2+ (lymphocyte cells [3]; 1 mM 4CmC, normal swine): 25.2±5.1%
basal plus 4CmC-induced ADO range (lymphocyte cells [3]; 1 mM 4CmC, normal swine cells): 0.145 to 0.209 µM
4CmC-induced ADO, mean±SEM (lymphocyte cells [3]; 2 mM 4CmC, absence of extracellular Ca2+, normal swine): 0.167 ± 0.018 µM
4CmC-induced adenosine relative to basal adenosine level (lymphocyte cells [3]; 2 mM 4CmC, no FCCP, Ca2+/Mg2+ free HBSS, normal swine (n=5)): 5.8 fold
increase in 4CmC-induced ADO formation in the presence of extracellular Ca2+ (lymphocyte cells [3]; 2 mM 4CmC, normal swine): 41±3.3%
4CmC-induced ADO, mean±SEM (lymphocyte cells [3]; 2 mM 4CmC, presence of extracellular Ca2+, normal swine): 0.284 ± 0.023 µM
increase in sensitivity to 4CmC in the MHS cell population (lymphocyte cells [3]; MHS vs normal swine cells): ~60%
EC50 (lymphocyte cells [3]; read-out: estimated EC50 of 4CmC for ADO formation, MHS swine cells): 550 ± 60 µM
EC50 (lymphocyte cells [3]; read-out: estimated EC50 of 4CmC for ADO formation, normal swine cells): 340 ± 40 µM
peak ADO level upon 4CmC stimulation, mean±SEM (lymphocyte cells [3]; normal HBSS, MHS swine cells (n=7)): 0.389 ± 0.033 µM
peak ADO level upon 4CmC stimulation, mean±SEM (lymphocyte cells [3]; normal HBSS, normal swine cells (n=7)): 0.199 ± 0.005 µM
4CmC concentration at which ADO levels peaked (lymphocyte cells [3]; swine lymphocytes, normal HBSS): ~1 mM
